Values of other authors, collected in paper PMC4855509 (Photochemistry and photobiology, 2014).

In the case of carboxy-tetramethylrhodamine [TMR], the “triplet state quantum yield” value is listed as 0.001–0.003.
